# Assay results taken from paper PMC3888718, “F-18 Labeled Vasoactive Intestinal Peptide Analogue in the PET Imaging of Colon Carcinoma in Nude Mice” (BioMed Research International, 2013).
# Read-outs that look alike come from different tables or passages of the source. Where a SMILES comes first, the peptide text is derived from it. The star is where a group is joined. Benzoyl(4-F) = O=C(c1ccc(F)cc1)*
# Tests used:
# [1] = micro-PET imaging in C26 tumor bearing mice; format: in vivo; conditions: nude mice, tumor and muscle, total radioactivity, micro-PET; for tissue to tissue ratio at 1 h: 60 min after injection
# Description: (§1) C26 tumor bearing mice were obtained by right subaxillary implantation and were used in PET imaging test when the tumor had grown to the size of about 1 cm. PET imaging test in small animals was performed on a micro-PET R4 scanner (Concorde Microsystems, Siemens, Germany). After sodium pentobarbital anesthesia, C26 tumor bearing mice were injected with 1.5 MBq (40 μCi) [F-18]FB-[R^8,15,21, L^17]-VIP and placed in the central zone of the micro-PET device separately at 5 min, 60 min, and 120 min following injection. They underwent static scanning for 10 min at different points. The original data obtained were transformed into 2D image by Fourier transform and 2D FBP reconstruction.
# (§2) Blocking experiment was conducted to explore whether [F-18]FB-[R^8,15,21, L^17]-VIP was receptor-specific. 100 μg of nonlabeled VIP polypeptide mixed with 40 μCi [F-18]FB-[R^8,15,21, L^17]-VIP was injected into each C26 tumor bearing mouse. The imaging experiment with blocking was performed 60 min following injection, using scanning for 10 min and the same procedures and data treatment process as above.
# C26 colon carcinoma = experiment: micro-PET imaging in C26 tumor bearing mice; format: in vivo; conditions: micro-PET images, C26 tumor bearing mice
# Description: as §1, §2
# [2] = tissue distribution test in normal BALB/C mice; format: in vivo; conditions: 100 μCi tail vein, 5-120 min, γ counter, n = 5 per group
# Description: All animal experiments followed the laboratory animal specifications of Zhongshan Hospital, Fudan University. In order to obtain preliminary in vivo pharmacokinetics data of this radiolabeled polypeptide, 100 μL 3.7 MBq (100 μCi) [F-18]FB-[R^8,15,21, L^17]-VIP was injected into each normal BALB/C mouse through tail vein. 20 mice were assigned to 4 groups evenly. At 5, 30, 60, and 120 min following injection, they were sacrificed under anesthesia. Mice in each group were immediately subject to autopsy, where the organs and tissues of interest, including brain, liver, kidneys, heart, lungs, spleen, stomach, small intestine, muscles, bones, and blood, were collected. All the tissue samples were weighed and their counting were measured by γ counter, so that the percent injected dose per each gram of tissue (% ID/g) was derived.
# [3] = cited from earlier work
# Description: (§3) Since Virgolin initially reported use of ^123I labeled VIP in the imaging study of tumor VIP receptors, several potential ^123I, ^99 mTc, F-18, and ^64Cu labeled VIP analogues have been developed. […] Therefore, our early efforts mainly focused on the structural modification for improving in vivo stability of VIP polypeptide and a series of studie ...
# VIP receptor = conditions: cited from earlier work
# Description: as §3
# [4] = tested on: colon carcinoma cells LS174T; conditions: mouse, in vivo; cited from earlier work
# Description: Like other neuropeptides, VIP is quickly metabolized in liver and excreted from kidneys. Given this, when VIP is to be used as an imaging agent, chemical modification of its structure is mandatory to extend the biological half-life in order to meet the imaging requirement. […] Pallela et al. labeled VIP analogue (TP3654) by ^99mTc and conducted animal distribution and imaging tests in nude mice transpla ...
compound,measurement,setting,value
"CC[C@H](C)[C@H](NC(=O)[C@H](CO)NC(=O)[C@H](CC(N)=O)NC(=O)[C@H](CC(C)C)NC(=O)[C@H](Cc1ccc(O)cc1)NC(=O)[C@H](CCCNC(=N)N)NC(=O)[C@H](CCCCNC(=O)c1ccc(F)cc1)NC(=O)[C@@H](NC(=O)[C@H](C)NC(=O)[C@H](CC(C)C)NC(=O)[C@H](CCC(N)=O)NC(=O)[C@H](CCCNC(=N)N)NC(=O)[C@H](CCCNC(=N)N)NC(=O)[C@H](CC(C)C)NC(=O)[C@H](CCCNC(=N)N)NC(=O)[C@@H](NC(=O)[C@H](Cc1ccc(O)cc1)NC(=O)[C@H](CC(N)=O)NC(=O)[C@H](CCCNC(=N)N)NC(=O)[C@@H](NC(=O)[C@H](Cc1ccccc1)NC(=O)[C@@H](NC(=O)[C@H](C)NC(=O)[C@H](CC(=O)O)NC(=O)[C@H](CO)NC(=O)[C@@H](N)Cc1c[nH]cn1)C(C)C)[C@@H](C)O)[C@@H](C)O)C(C)C)C(=O)N[C@@H](CC(C)C)C(=O)N[C@@H](CC(N)=O)C(N)=O [[F-18]FB-[R^8,15,21, L^17]-VIP] (H-HSDAVFTRNYTRLRRQLAVK(Benzoyl(4-F))RYLNSILN-NH2; N-terminus assumed)",tissue to tissue ratio at 5 min,"[1]; mouse, iv, 40 uCi, C26 tumor bearing mice, 40 μCi i.v., 5 min after injection, 10 min static scan, read-out: tumor-to-muscle ratio (T/M)",1.84
same,tissue to tissue ratio at 1 h,"[1]; mouse, iv, 40 uCi, C26 tumor bearing mice, 40 μCi, unblocked, read-out: tumor-to-muscle ratio (T/M)",3.03
same,tissue to tissue ratio at 2 h,"[1]; mouse, iv, 40 uCi, C26 tumor bearing mice, 40 μCi, 120 min after injection, read-out: tumor-to-muscle ratio (T/M)",3.74
same,tissue to tissue ratio at 1 h,"[1]; C26 tumor bearing mouse, 40 μCi mixed with 100 μg nonlabeled VIP, read-out: tumor-to-muscle ratio (T/M), blocking experiment",1.01
same,passage through the blood-brain barrier,C26 colon carcinoma,could not pass through the blood-brain barrier
same,bone absorption (in vivo defluorination stability),C26 colon carcinoma; up until 120 min,no marked bone absorption
same,bone absorption (defluorination stability),[2],low bone absorption
"H-HSDAVFTRNYTRLRRQLAVKRYLNSILN-NH2 [[R^8,15,21, L^17]-VIP, VIP analogue, 28-residue peptide amide, precursor for F-18 labeling]",in vivo stability in comparison to native VIP,[3],higher
same,receptor affinity in comparison to native VIP,VIP receptor,higher
^125I-VIP: ^125I labeled vasoactive intestinal peptide,tumor/blood ratio (T/B),[4],0.88 ± 0.16
same,tumor/muscle ratio (T/M),[4],0.38 ± 0.56
